Test results taken from patent publication US20240043808A1, “Screenable Liver Disease Models and Methods” (INSPHERO AG, priority 2016, published 2024).
“Also recorded” adds a separate entry of the source. Read-outs that look alike come from different tables or passages of the source.

Key:
liver microtissues [1] = experiment: Lipid loading of liver microtissues, nile-red staining of lipid accumulation (steatosis); format: cell-based; settings: for lipid accumulation in microtissues: increasing concentrations of free fatty acid, nile-red staining
Experimental: FIG. 3A(1): Induction of liver-disease phenotype “steatosis” as determined by lipid accumulation. […] Images are depicted as maximal intensity projections.
FIG. 3A (2): Lipid accumulation in dependency of increasing concentrations of PA, OA or a combination thereof in a molar ratio of 2:1. The total amount of FFA was identical among the groups at a given concentration.
(§1) • Dissolve FFA-free BSA at RT for 1h in H2O for desired stock solution concentration • Dissolve desired amount of OA-Na in 1 mL 0.1 M NaOH-->at 70° C. • Dissolve desired amount of PA-Na 1 mL 0.1 M NaOH-->at 70° • Keep the FFAs on 70° C., while the BSA is placed on 37° C. • Mix FFA with BSA with a magnetic stirrer (for 30 min) • Dilute BSA with 0.1 M NaOH->vehicle control • Cool down to RT, sterile filter, aliquot and freeze. • For a final fatty acid (FA) solution dilute master stock in medium. • Replace medium of liver microtissues with FA-containing medium and incubate 2-7 days.

liver microtissues [2] = experiment: ATP measurement after exposure of liver microtissues to free fatty acids; format: cell-based; settings: increasing concentrations of FFA for 3-14 days; control BSA
Experimental: FIG. 3A(3): ATP measurements from identical groups after exposure to increasing concentrations of FFA for 3-14 days.
as §1

[3] = system: liver MT triple-culture (hepatocyte+inflammatory cells+stellate cells); experiment: Viability of liver MT triple-culture treated with pro-fibrotic compounds; settings: co-cultured microtissues, exposure over 14 days
[4] = system: liver MT triple-culture (hepatocyte+inflammatory cells+stellate cells); experiment: Pro-fibrotic gene expression in liver MT triple-culture treated with pro-fibrotic compounds; settings: co-cultured microtissues, 14 days
Experimental: MT mRNA was extracted using TRIzol conventional procedure and fold induction were calculated as 2^(−ΔΔCT) for each sample and negative control and expressed as mean fold induction±S.E.M. of three replicates with six MTs each. Actin was used as reference gene for each sample.

[5] = system: liver endothelial cells (LEC); settings: 5 days treatment, sub-toxic doses, LEC-coated microtissues
Text: FIG. 7: Assessment of LEC-specific toxicity.
Spheroidal liver microtissues containing hepatocytes and Kupffer cells were coated with liver endothelial cells (LEC) and subjected to 5 days treatment with sub-toxic doses of Acetaminophen (APAP), Cyclophosphamide and Monocrotaline (FIG. 7). After the treatment, microtissues were collected, formalin fixed and paraffin embedded, sliced and stained by immunohistochemistry for the LEC-marker CD31.

[6] = system: triple/co-cultured (HepaRG THP1/hTERT-HSC) liver MT; experiment: MTT viability of liver MT stimulated with inflammatory and pro-fibrotic stimuli; format: cell-based, human; settings: co-cultured microtissues, 14 days of treatment
[7] = system: mono-cultured (HepaRG) and triple/co-cultured (HepaRG THP1/hTERT-HSC) liver MT; experiment: Gene expression of fibrotic markers and cytokines in liver MT exposed to LPS, TNF-α and TGF-β1; format: cell-based, human; settings: for IL-6 gene induction: HepaRG monocultures
Text: Induction of fibrosis biomarkers, Collagen I and IV upon treatment with inflammation-stimuli LPS or TNF-α and pro-fibrotic TGF-β1 signaling molecule. […] Actin was used as reference gene for each sample. ND: no-detected values. *; P≤0.05.
In order to assess the responsiveness towards prototypic inflammatory stimuli and pro-fibrotic stimuli on a gene-expression level, mono-cultured (HepaRG) and triple/co-cultured (HepaRG THP1/hTERT-HSC) liver MT were stimulated with inflammatory inducers (LPS or TNF-α) and the pro-fibrotic cytokine TGF-β1 to assess the cellular responses. Significant differences in the responses of the two types of MT were observed (FIG. 4). […] For example, mRNA of collagen I was only detected in the co-culture system, but not in the monocultures.

[8] = system: Human liver microtissues (+Kupffer cells) with stellate cells; experiment: Inhibition of fibrosis progression, immunohistochemical staining of collagen I; format: cell-based; settings: 7 days treatment, stellate cell comprising microtissues, in presence of TGF-β1
Text: FIG. 6: Therapeutic effect of inhibition of pro-fibrotic effector pathways (TGF-βR, TK-R) was confirmed in triple co-culture liver MTs. Human liver MTs prepared form primary human hepatocytes, primary human Kupffer cells and primary human stellate cells where treated with TGF-β1 alone, or in combination with undisclosed inhibitors of i) TGF-β1 receptor, ii) ALK5, and iii) Tyrosine Kinase receptors.
Human liver microtissues (+Kupffer cells) without stellate cells and with either a stellate cell line or primary human stellate cells were treated with a fibrosis inducer (TGF-β1) and in combination with an undisclosed fibrosis inhibitor. […] Even more pronounced is the difference between TGF-β1 treated stellate cell comprising microtissues and TGF-β1/inhibitor treated cultures.

For `CCCCCCCC/C=C\CCCCCCCC(=O)O` [OA, Oleate], the “steatosis phenotype (lipid droplets in hepatocytes)” value (liver microtissues [1]; FIG. 3A1) was “small lipid droplets (microvesicular steatosis)”.

For `CCCCCCCCCCCCCCCC(=O)O` [PA, palmitic acid], the “steatosis phenotype (lipid droplets in hepatocytes)” value (liver microtissues [1]) was “rather macrovesicular phenotype”, the “lipid accumulation in microtissues” value (liver microtissues [1]) was “reduced lipid incorporation at concentrations higher than PA3” and the “lipid accumulation in microtissues” value (liver microtissues [1]; listed as Palmitate) was “induced lipid accumulation”. For the same compound, the ATP (liver microtissues [2]) was “decreased values in microtissues exposed to PA4 and higher”.

For `CC(=N)S` [TAA, Thiocetamide], the MT viability [3] was “Dose-dependent loss of viability or metabolic activity; also recorded: dose-dependent decrease” and the “transcriptional induction of collagen I, collagen IV, fibronectin I and CD44” value [4] was “greatly enhanced; also recorded: dose-dependent transcriptional induction”.

`O=P1(N(CCCl)CCCl)NCCCO1` (centres unmarked) [cyclosphosphamide, Cyclophosphamide] was tested, and the “LEC-marker CD31 (immunohistochemistry)” value [5] was “heavily reduced or completely absent” and the “LEC-marker CD31 (immunohistochemistry)” value ([5]; listed as Cyclosphosphamide) was “reduced LEC-presence”.

`C[C@H]1C(=O)O[C@@H]2CCN3CC=C(COC(=O)[C@](C)(O)[C@]1(C)O)[C@H]23` [monocrotalin, Monocrotaline] was tested, and the “LEC-marker CD31 (immunohistochemistry)” value [5] was “heavily reduced or completely absent” and the “LEC-marker CD31 (immunohistochemistry)” value ([5]; listed as Monocrotaline) was “reduced LEC-presence”.

“TGF-β1: pro-fibrotic cytokine, fibrosis inducer” was tested, and the cellular viability [6] was “decreased viability”, the IL-6 gene induction [7] was “did not induce” and the IL-6 gene expression ([7]; co-cultures) was “observed in co-cultures”. For the same compound, the “fibrotic phenotype, collagen I deposition” value [8] was “severe fibrotic phenotype with collagen deposition”.

In the case of TNF-α, the cellular viability [6] was “increased cellular viability” and the IL-6 gene induction [7] was “strongly responsive”.
